Read-outs that look alike come from different tables or passages of the source.
How the values were obtained:
Test in all cases: biochemical
Assay type in all cases: binding
[1] = biological target: cellular kinases of SH-SY5Y cells (Homo sapiens, UniProt O00329); conditions: 2µM; SH-SY5Y cells; Labeling Site ATP; VNWLAHNVSKDNRQ; read-out: KiNativ in-cell binding, % Inhibition, PIK3CD
From the text: (§1) As KINOMEscan is an in vitro assay, and as different cell types have variable kinase expression profiles we sought to determine the kinase binding profile in our SH-SY5Y TFEB-relocalization cell model. […] Bound kinases were pulled down and analyzed by mass spectrometry to determine the in situ kinase binding profile for each compound.

[2] = biological target: T1, cellular kinases of SH-SY5Y cells (Homo sapiens, UniProt O14920); conditions: 2µM; SH-SY5Y cells; Labeling Site Lys2; DLKPENIVLQQGEQR; read-out: KiNativ in-cell binding, % Inhibition, IKBKB/IKKb
T1 construct: endogenous in cells; host or cells: SH-SY5Y
T1 sequence (O14920 whole entry): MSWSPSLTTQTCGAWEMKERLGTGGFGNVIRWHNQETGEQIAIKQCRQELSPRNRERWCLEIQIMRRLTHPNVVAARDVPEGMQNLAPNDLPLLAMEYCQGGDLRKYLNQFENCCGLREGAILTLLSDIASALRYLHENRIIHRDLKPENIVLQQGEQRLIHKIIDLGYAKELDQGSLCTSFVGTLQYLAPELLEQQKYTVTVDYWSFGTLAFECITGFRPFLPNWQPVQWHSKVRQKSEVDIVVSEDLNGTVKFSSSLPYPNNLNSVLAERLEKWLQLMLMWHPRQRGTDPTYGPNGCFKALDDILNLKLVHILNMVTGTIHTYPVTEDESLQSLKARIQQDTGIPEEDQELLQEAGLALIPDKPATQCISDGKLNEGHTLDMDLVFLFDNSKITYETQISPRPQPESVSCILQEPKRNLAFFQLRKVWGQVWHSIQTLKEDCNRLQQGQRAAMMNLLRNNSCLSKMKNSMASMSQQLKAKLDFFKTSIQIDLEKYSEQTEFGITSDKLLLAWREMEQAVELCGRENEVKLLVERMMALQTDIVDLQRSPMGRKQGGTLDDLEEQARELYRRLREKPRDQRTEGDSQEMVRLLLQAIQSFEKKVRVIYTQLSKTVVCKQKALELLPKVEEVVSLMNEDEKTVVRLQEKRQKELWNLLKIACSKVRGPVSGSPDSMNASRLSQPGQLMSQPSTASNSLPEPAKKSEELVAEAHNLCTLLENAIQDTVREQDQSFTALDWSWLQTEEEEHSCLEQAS
From the text: as §1

[3] = biological target: T2, cellular kinases of SH-SY5Y cells (Homo sapiens, UniProt O15021); conditions: 2µM; SH-SY5Y cells; Labeling Site Lys2; DLKPDNLLVTSMGHIK; read-out: KiNativ in-cell binding, % Inhibition, MAST4
T2 construct: endogenous in cells; host or cells: SH-SY5Y
From the text: as §1

[4] = biological target: T3, cellular kinases of SH-SY5Y cells (Homo sapiens, UniProt O75063); conditions: 2µM; SH-SY5Y cells; Labeling Site ATP; ETEPACADGDIMEGSVTLWLPDVWPLQKHR; read-out: KiNativ in-cell binding, % Inhibition, FAM20B
T3 construct: endogenous in cells; host or cells: SH-SY5Y
T3 sequence (O75063 whole entry): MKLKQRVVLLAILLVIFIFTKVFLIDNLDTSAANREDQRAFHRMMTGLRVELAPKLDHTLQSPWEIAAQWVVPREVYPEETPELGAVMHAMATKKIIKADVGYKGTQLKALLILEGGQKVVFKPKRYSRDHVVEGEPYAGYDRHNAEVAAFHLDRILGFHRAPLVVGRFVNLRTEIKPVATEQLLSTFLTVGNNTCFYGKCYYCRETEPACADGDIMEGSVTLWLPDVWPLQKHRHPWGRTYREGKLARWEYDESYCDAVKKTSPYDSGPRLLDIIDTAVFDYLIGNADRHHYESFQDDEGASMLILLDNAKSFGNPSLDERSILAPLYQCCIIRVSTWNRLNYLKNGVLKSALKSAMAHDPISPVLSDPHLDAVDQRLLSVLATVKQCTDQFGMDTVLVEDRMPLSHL
From the text: as §1

[5] = biological target: cellular kinases of SH-SY5Y cells (Homo sapiens, UniProt P19784); conditions: 2µM; SH-SY5Y cells; labeling site Lys2; peptide DVKPHNVMIDHQQK
From the text: as §1

[6] = biological target: cellular kinases of SH-SY5Y cells (Homo sapiens, UniProt P41240); conditions: 2µM, SH-SY5Y cells, read-out: KiNativ in-cell binding, % Inhibition, CSK
cellular kinases of SH-SY5Y cells (Homo sapiens, UniProt P41240), sequence (P41240 whole entry): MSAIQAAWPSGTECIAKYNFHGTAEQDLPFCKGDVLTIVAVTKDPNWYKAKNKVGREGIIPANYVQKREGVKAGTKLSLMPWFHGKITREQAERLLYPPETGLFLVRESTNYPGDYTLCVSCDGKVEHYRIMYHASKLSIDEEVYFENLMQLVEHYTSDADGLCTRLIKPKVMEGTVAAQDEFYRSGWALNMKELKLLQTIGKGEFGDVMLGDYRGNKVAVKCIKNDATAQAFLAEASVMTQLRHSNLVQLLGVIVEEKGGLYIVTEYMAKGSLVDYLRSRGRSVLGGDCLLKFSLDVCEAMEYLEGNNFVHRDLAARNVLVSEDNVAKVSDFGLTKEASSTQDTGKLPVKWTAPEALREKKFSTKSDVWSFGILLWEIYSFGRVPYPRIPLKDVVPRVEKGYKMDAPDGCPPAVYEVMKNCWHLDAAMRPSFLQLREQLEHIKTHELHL
From the text: as §1

[7] = biological target: cellular kinases of SH-SY5Y cells (Homo sapiens, UniProt P42345); conditions: 2µM; SH-SY5Y cells; Labeling Site ATP; IQSIAPSLQVITSKQRPR; read-out: KiNativ in-cell binding, % Inhibition, MTOR
From the text: as §1

[8] = biological target: cellular kinases of SH-SY5Y cells (Homo sapiens, UniProt P51812); conditions: 2µM; SH-SY5Y cells; Labeling Site Lys2; DLKPSNILYVDESGNPESIR; read-out: KiNativ in-cell binding, % Inhibition, RPS6KA3/RSK2 domain2
From the text: as §1

[9] = biological target: cellular kinases of SH-SY5Y cells (Homo sapiens, UniProt P54760); conditions: 2µM; SH-SY5Y cells; Labeling Site Activation Loop; FLEENSSDPTYTSSLGGKIPIR; read-out: KiNativ in-cell binding, % Inhibition, EphB4
From the text: as §1

[10] = biological target: T4, cellular kinases of SH-SY5Y cells (Homo sapiens, UniProt Q00537); conditions: 2µM; SH-SY5Y cells; Labeling Site Lys2; DLKPQNLLINEK; read-out: KiNativ in-cell binding, % Inhibition, CDK17/PCTAIRE2
T4 construct: endogenous in cells; host or cells: SH-SY5Y
T4 sequence (Q00537 whole entry): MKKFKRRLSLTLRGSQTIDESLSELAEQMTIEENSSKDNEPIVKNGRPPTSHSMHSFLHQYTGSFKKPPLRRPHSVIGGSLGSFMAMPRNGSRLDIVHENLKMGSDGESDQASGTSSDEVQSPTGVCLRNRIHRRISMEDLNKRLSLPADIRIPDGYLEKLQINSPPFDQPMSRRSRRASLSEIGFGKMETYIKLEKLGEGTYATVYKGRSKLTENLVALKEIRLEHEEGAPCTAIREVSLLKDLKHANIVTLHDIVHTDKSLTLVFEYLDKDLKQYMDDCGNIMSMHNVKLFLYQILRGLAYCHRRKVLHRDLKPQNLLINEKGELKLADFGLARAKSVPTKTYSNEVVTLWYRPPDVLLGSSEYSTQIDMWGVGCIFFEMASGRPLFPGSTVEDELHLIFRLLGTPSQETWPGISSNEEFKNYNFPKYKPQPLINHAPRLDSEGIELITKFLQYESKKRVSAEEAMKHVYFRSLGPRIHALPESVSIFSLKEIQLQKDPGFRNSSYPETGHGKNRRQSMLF
From the text: as §1

[11] = biological target: T5, cellular kinases of SH-SY5Y cells (Homo sapiens, UniProt Q13177); conditions: 2µM; SH-SY5Y cells; Labeling Site Other; KNPQAVLDVLKFYDSNTVK; read-out: KiNativ in-cell binding, % Inhibition, PAK2
T5 construct: endogenous in cells; host or cells: SH-SY5Y
From the text: as §1

[12] = biological target: T6, cellular kinases of SH-SY5Y cells (Homo sapiens, UniProt Q13523); conditions: 2µM; SH-SY5Y cells; Labeling Site Lys2; CNILHADIKPDNILVNESK; read-out: KiNativ in-cell binding, % Inhibition, PRPF4B
T6 construct: endogenous in cells; host or cells: SH-SY5Y
From the text: as §1

[13] = biological target: cellular kinases of SH-SY5Y cells (Homo sapiens, UniProt Q15349); conditions: 2µM; SH-SY5Y cells; labeling site Lys2; peptide DLKPENILLDEEGHIKITDFGLSK
cellular kinases of SH-SY5Y cells (Homo sapiens, UniProt Q15349), sequence (Q15349 whole entry): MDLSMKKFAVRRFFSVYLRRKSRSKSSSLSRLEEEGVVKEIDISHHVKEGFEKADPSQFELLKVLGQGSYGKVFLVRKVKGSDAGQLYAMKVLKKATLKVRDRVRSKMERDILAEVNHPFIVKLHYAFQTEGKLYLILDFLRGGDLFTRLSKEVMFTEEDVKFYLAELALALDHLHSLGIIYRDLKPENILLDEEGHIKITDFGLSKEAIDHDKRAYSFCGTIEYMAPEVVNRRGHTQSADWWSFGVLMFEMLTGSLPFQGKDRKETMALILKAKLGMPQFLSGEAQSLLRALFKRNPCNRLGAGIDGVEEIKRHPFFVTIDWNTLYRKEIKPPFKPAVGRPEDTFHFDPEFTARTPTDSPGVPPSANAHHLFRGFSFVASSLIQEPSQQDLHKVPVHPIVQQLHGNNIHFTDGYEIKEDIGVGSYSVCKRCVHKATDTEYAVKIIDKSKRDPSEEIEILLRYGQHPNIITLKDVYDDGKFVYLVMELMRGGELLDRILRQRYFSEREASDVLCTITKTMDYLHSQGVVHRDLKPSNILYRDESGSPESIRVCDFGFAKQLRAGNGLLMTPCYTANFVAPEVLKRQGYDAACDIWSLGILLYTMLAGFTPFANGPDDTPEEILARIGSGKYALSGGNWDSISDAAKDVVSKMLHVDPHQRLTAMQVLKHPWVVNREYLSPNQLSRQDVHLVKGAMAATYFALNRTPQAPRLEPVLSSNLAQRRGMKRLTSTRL
From the text: as §1

[14] = biological target: T7, cellular kinases of SH-SY5Y cells (Homo sapiens, UniProt Q15831); conditions: 2µM; SH-SY5Y cells; Labeling Site Lys2; DIKPGNLLLTTGGTLK; read-out: KiNativ in-cell binding, % Inhibition, STK11/LKB1
T7 construct: endogenous in cells; host or cells: SH-SY5Y
T7 sequence (Q15831 whole entry): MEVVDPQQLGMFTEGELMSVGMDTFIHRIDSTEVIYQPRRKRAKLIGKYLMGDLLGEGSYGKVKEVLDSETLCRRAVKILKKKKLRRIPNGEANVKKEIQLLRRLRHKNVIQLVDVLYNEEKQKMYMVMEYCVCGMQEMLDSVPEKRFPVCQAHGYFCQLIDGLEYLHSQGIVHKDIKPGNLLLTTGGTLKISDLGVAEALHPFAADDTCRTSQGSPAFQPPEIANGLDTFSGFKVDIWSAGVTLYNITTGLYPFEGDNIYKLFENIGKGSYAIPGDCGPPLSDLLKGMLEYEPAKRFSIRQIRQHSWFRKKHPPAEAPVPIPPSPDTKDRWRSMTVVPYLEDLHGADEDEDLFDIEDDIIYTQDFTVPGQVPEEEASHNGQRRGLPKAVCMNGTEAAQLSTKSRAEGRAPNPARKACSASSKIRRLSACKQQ
From the text: as §1

[15] = biological target: cellular kinases of SH-SY5Y cells (Homo sapiens, UniProt Q7KZI7); conditions: 2µM; SH-SY5Y cells; Labeling Site Lys1; EVAVKIIDKTQLNSSSLQK; read-out: KiNativ in-cell binding, % Inhibition, MARK2
From the text: as §1

[16] = biological target: T8, cellular kinases of SH-SY5Y cells (Homo sapiens, UniProt Q8NB16); conditions: 2µM; SH-SY5Y cells; labeling site Lys1; peptide APVAIKVFK
T8 construct: endogenous in cells; host or cells: SH-SY5Y
T8 sequence (Q8NB16 whole entry): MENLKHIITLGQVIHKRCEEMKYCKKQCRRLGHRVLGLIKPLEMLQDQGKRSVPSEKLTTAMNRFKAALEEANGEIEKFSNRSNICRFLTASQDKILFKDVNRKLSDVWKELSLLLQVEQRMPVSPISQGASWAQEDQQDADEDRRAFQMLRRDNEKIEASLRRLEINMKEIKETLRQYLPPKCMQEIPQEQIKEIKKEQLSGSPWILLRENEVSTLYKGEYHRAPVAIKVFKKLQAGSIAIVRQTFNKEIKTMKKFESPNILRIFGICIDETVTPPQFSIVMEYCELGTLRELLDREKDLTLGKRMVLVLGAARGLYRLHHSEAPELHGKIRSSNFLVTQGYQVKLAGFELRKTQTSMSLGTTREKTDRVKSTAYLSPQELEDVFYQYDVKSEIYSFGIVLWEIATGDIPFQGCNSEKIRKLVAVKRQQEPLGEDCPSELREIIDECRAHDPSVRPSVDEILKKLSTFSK
From the text: as §1

[17] = biological target: cellular kinases of SH-SY5Y cells (Homo sapiens, UniProt Q8TBX8); conditions: 2µM, SH-SY5Y cells, Labeling Site ATP, read-out: KiNativ in-cell binding, % Inhibition, PIP4K2C
cellular kinases of SH-SY5Y cells (Homo sapiens, UniProt Q8TBX8), sequence (Q8TBX8 whole entry): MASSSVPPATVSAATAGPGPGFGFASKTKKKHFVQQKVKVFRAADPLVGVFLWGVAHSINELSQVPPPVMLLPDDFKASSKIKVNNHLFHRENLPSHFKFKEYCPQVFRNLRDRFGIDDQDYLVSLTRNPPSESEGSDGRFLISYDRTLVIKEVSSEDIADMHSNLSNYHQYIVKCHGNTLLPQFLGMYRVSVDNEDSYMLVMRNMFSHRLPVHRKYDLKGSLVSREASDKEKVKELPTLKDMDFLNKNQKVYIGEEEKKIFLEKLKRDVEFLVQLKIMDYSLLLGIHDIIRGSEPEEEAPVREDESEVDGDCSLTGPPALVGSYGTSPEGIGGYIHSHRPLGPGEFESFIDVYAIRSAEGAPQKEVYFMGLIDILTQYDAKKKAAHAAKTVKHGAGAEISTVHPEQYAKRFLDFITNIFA
From the text: as §1

[18] = biological target: cellular kinases of SH-SY5Y cells (Homo sapiens, UniProt Q99683); conditions: 2µM; SH-SY5Y cells; Labeling Site Lys2; DIKGDNVLINTYSGVLK; read-out: KiNativ in-cell binding, % Inhibition, MAP3K5
From the text: as §1

[19] = biological target: cellular kinases of SH-SY5Y cells (Homo sapiens, UniProt Q99759); conditions: 2µM; SH-SY5Y cells; Labeling Site Lys1; ELASKQVQFDPDSPETSKEVSALECEIQLLK; read-out: KiNativ in-cell binding, % Inhibition, MAP3K3
cellular kinases of SH-SY5Y cells (Homo sapiens, UniProt Q99759), sequence (Q99759 whole entry): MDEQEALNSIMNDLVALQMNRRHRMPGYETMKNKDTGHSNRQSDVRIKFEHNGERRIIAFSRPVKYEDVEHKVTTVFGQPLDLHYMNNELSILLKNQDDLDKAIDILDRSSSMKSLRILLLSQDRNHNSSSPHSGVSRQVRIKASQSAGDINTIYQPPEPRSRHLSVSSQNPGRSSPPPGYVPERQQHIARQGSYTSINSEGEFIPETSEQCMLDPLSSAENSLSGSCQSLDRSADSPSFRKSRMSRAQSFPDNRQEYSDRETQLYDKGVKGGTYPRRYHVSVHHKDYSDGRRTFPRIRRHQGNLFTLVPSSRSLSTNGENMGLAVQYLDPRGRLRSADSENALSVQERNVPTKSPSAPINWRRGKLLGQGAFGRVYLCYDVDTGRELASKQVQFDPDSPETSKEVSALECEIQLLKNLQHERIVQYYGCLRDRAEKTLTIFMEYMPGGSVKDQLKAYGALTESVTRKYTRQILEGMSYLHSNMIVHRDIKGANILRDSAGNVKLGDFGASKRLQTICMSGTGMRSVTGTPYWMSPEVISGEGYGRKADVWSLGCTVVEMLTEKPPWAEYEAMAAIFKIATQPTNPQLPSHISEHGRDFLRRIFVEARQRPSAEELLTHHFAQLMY
From the text: as §1

[20] = biological target: T9, cellular kinases of SH-SY5Y cells (Homo sapiens, UniProt Q9C0K7); conditions: 2µM; SH-SY5Y cells; labeling site Lys1; peptide HTPTGTLVTIKITNLENCNEER
T9 construct: endogenous in cells; host or cells: SH-SY5Y
From the text: as §1

SMILES: Cc1cccc(-c2nc(Nc3ccc4ncsc4c3)c3ccccc3n2)n1 [NK140]
- inhibition at 2 µM [1]: -29.2%
- inhibition at 2 µM [2]: -43%
- inhibition at 2 µM [3]: 27.2%
- inhibition at 2 µM [4]: -39.2%
- KiNativ in-cell binding, CSNK2A2 [5]: -67.6
- inhibition at 2 µM ([6]; Labeling Site Activation Loop, VSDFGLTKEASSTQDTGKLPVK): 21.6%
- inhibition at 2 µM ([6]; Labeling Site Lys1, VAVKCIK): 4.7%
- inhibition at 2 µM [7]: 18.4%
- inhibition at 2 µM [8]: -54.8%
- inhibition at 2 µM [9]: -33.5%
- inhibition at 2 µM [10]: 13.2%
- inhibition at 2 µM [11]: 42.4%
- inhibition at 2 µM [12]: 32.3%
- KiNativ in-cell binding, RSK3 domain1 [13]: -68.0
- inhibition at 2 µM [14]: 58%
- inhibition at 2 µM [15]: 10.5%
- KiNativ in-cell binding, MLKL [16]: -57.5
- inhibition at 2 µM ([17]; TLVIKEVSSEDIADMHSNLSNYHQYIVK): -7%
- inhibition at 2 µM ([17]; VKELPTLKDMDFLNK): 7.2%
- inhibition at 2 µM [18]: 18.7%
- inhibition at 2 µM [19]: 12.5%
- KiNativ in-cell binding, STRADB [20]: 0.5
